≈ marks a conversion by molar mass, not a printed value. Where a name gives a salt, the structure may show the parent alone.
Assays:
[1] = test system: patients with mild cognitive impairment or Alzheimer's disease; conditions: cited from earlier work
[2] = test system: mouse model of Alzheimer's disease; conditions: cited from earlier work
[3] = Solubility test (saturated solution, HPLC); assay type: physicochemical
Protocol: After diluting a reference solution with 50% acetonitrile, a calibration curve (range: […]) was prepared by USP compendial HPLC analysis, and the concentration of the saturated solution was obtained from a first-order function of the prepared calibration curve.

[4] = versus thiamine hydrochloride or thiamine nitrate; cited from earlier work
[5] = Stability test under harsh conditions (60° C.±2° C.), HPLC analysis; assay type: physicochemical; conditions: for purity (HPLC), Day 3 / purity (HPLC), Day 7 / purity (HPLC), Day 14 / purity (HPLC), Day 21 / purity (HPLC), Initial: harsh conditions 60° C.±2° C.; for purity change: stability test for 21 days under harsh conditions
Protocol: A stability test of a pharmaceutical means to confirm the stability of constant quality over time under certain conditions to set the storage method and shelf life of the pharmaceutical. Therefore, an expiration date of a product is set by setting appropriate specifications and evaluating conformance to the specifications by evaluating significant changes based on a prescribed analytical method.
Specifically, a stability test was conducted under harsh conditions (60° C.±2° C.) according to the ICH guidelines, and an analysis was performed by high-performance liquid chromatography (HPLC) analysis.

[6] = test system: p-ERK, p-AKT, and NR2B in primary cultured hippocampal neurons; test: Immunoblot test: activation of neuroplastic factors in hippocampal cells; assay type: cell-based, SD rats (Sprague-Dawley rats); conditions: 1 or 3 μg/ml, 10 minutes, FIG. 5
Protocol: All cells used in the experiment were primary cultured hippocampal neurons. Hippocampal neurons were isolated from embryos of SD rats (Sprague-Dawley rats, Samtaco Korea) on gestation Day 18 and Day 19. A hippocampal nerve tissue of fetal rats was physically separated by using a dissecting microscope and then placed in HBSS (Hank's Balanced Salt Solution) supplemented with 0.25% trypsin and treated at 37° C. for 10 minutes. After washing the hippocampal nerve tissue with HBSS, single cells were isolated by carefully pipetting with a pipette. The isolated cells were cultured by filling a 60 mm cell culture dish, coated with Poly-L-lysine (0.5 mg/ml) in advance, with Neurobasal/B27 medium (0.5 mM L-glutamine, 25 μM glutamate, 25 μM 2-mercaptoethanol, 100 U/mL penicillin, 100 μg/ml streptomycin) at 5% CO2 and 37° C. The medium was exchanged on cell culture Day 4 and Day 11, and the cells were used in the experiment on culture Day 14. To confirm p-ERK, p-AKT, and NR2B in cells, the medium of primary cultured hippocampal neurons cultured for 14 days was changed to a B-27-free medium at least 1 hour before drug treatment. […] The disrupted cell solution was quantified according to a protein quantification method, and then for protein analysis (immunoblotting), the protein was subjected to electrophoresis on 8% and 10% SDS-polyacrylamide gel. The membrane was subjected to a reaction at room temperature for 1 hour by adding 5% skim milk. A primary antibody was treated with tris buffered saline at a ratio of 1:1000, subjected to a reaction at 4° C. for 24 hours, and then washed three times with TBST (25 mM Tris-Hcl, 140 mM NaCl, 0.1% Tween 20, pH 7.5). After that, a secondary antibody was subjected to a reaction with Anti-Rabbit or Anti-Mouse antibody (HRP-linked) in 3% skim milk at a ratio of 1:5000 for 1 hour. The coupled antibody complex was confirmed by using West Femto Maximum Sensitivity Substrate (Thermo), and the results are shown in FIG. 5.

Solubility ([3]; Purified water) | Solubility ([3]; pH 1.2) | Solubility ([3]; pH 4.0) | Solubility ([3]; pH 6.8) | solubility at 1 h ([3]; purified water and solutions at pH 1.2, pH 4.0 and pH 6.8, aqueous buffer, thermodynamic from solid, purified water and solutions at pH 1.2, pH 4.0 and pH 6.8, read-out: solubility (range over all media)) | purity (HPLC), Day 3 [5] | purity (HPLC), Day 7 [5] | purity (HPLC), Day 14 [5] | purity (HPLC), Day 21 [5] | purity (HPLC), Initial [5] | purity change [5] | solubility (in words) ([3]; purified water and all solutions at pH 1.2, pH 4.0, and pH 6.8) | SMILES | rate of functional decline [1] | level of phosphorylated tau [2] | number of amyloid plaques [2] | spatial memory [2] | bioavailability higher than thiamine hydrochloride or thiamine nitrate [4] | level of NR2B [6] | level of phosphorylated Akt [6] | level of phosphorylated ERK [6]
3000 µg/mL (≈ 6.43 mM) | 5600 µg/mL (≈ 12 mM) | 3100 µg/mL (≈ 6.65 mM) | 6600 µg/mL (≈ 14.1 mM) | 3000 to 6600 µg/mL (≈ 6.43 to 14.1 mM) | 99.1 | 98.6 | 97.5 | 97.0 | 99.5 | 2.5% |  | C/C(=C(\CCOP(=O)(O)O)SC(=O)c1ccccc1)N(C=O)Cc1cnc(C)nc1N [Comparative Example, benfotiamine] | effective and safe in slowing down the rate of functional decline | reduces | reduces | improves spatial memory in a dose-dependent manner | about 3.6 times |  |  | 
652100 µg/mL | 898400 µg/mL | 690200 µg/mL | 820000 µg/mL |  | 99.2 | 99.1 | 99.0 | 98.2 | 99.3 | 1.1% | very high solubility | C/C(=C(\CCOP(=O)(O)O)SC(=O)c1ccccc1)N(C=O)Cc1cnc(C)nc1N [Example 1, benfotiamine choline salt] |  |  |  |  |  | effectively increased | effectively increased | effectively increased

Source: US20260062432A1 (REXPHARMTECH CO., LTD, priority 2022, published 2026)
